# Experiment: Solubility in artificial gastric juice versus artificial intestinal fluid
# Type: physicochemical
# Details: artificial gastric juice vs artificial intestinal fluid
# Method: Rosiglitazone is a second-generation thiazolidinedione hypoglycemic agent. Gastric floating tablets of rosiglitazone reported in the literature are prepared by conventional preparation techniques for gastric floating tablets as follows: the hydrophilic gel material with high viscosity, i.e., hydroxypropyl methyl cellulose (HPMC) is selected, to which appropriate amount of foaming agent is added, and then the resulting mixture is compressed into tablets by direct powder compression. The resulting gastric floating tablets are claimed to have the same bioavailability with common tablets administered in a multiple doses [Hao Feng, Zhimin Wang, Dawei Chen, Studies on floating sustained release tablets of rosiglitazone maleate, Journal of China Pharmaceutical University, 2002, 33 (3): 196-199]. […] The gas-vesicle-type floating formulation of the present invention can ensure that the density of the formulation is relatively small (generally<0.6 g/cm^3), thereby it can float at the early stage of administration, since the shape of the capsule keeps unchange in the stomach. Thus, the entire volume of the formulation remains relatively stable, so that stable and sustainable floating capacity is achieved.
smiles,measurement,value
CN(CCOc1ccc(CC2SC(=O)NC2=O)cc1)c1ccccn1 (stereo not shown) [rosiglitazone],solubility in artificial gastric juice relative to artificial intestinal fluid,about a million times more

# — patent US20110171275A1, “GASTRORETENTIVE DRUG DELIVERY SYSTEM, PREPARATION METHOD AND USE THEREOF” (TEAM ACADEMY OF PHARMACEUTICAL SCIENCE, priority 2008, published 2011)
